# According to US10227357B2, “Compounds and methods for kinase modulation, and indications therefor” (Plexxikon Inc., priority 2012, dated 2019):
# Assays:
# [1] = biological target: T1, c-kit mutant D816V (Homo sapiens, UniProt P10721, D816V/DEL694-753); test: c-Kit mutant D816V biochemical assay, AlphaScreen; settings: c-kit D816V biochemical inhibitory activity; read-out: Biochemical activity (IC50 μM) Kit D816V
# T1 construct: residues 551-934, kinase insertion domain residues 694-753 deleted; 6x-histidine (N); made in house; host or cells: E. coli Arctic Express (DE3) RIL (Stratagene)
# How it was run: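 Eight-point, threefold compound series incubated 30 min at room temperature with E. coli-produced D816V kinase, 10 μM ATP, Mg2+/Mn2+ HEPES buffer pH 7.2 and 5% DMSO. After EDTA stop, streptavidin and anti-phosphotyrosine (PY20) AlphaScreen beads gave the read-out, and IC50 was fitted from the concentration–signal curve.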
# [2] = biological target: T2, c-kit kinase (Homo sapiens, UniProt P10721); test: c-Kit biochemical assay, AlphaScreen, 10 μM ATP; settings: c-kit biochemical inhibitory activity; read-out: Biochemical activity (IC50 μM) Kit
# T2 construct: The c-kit (or kinase domain thereof) is an active kinase in AlphaScreen; poly-Histidine tag (in-house protein only) (cleaved yes); host or cells: E. coli BL21(DE3)RIL, co-expressed with PTP1B
# How it was run: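 His-tagged c-Kit expressed in E. coli with co-expressed PTP1B (dephosphorylated), tag removed; 0.1 ng per reaction with biotinylated-peptide substrate in 50 mM HEPES pH 7.2, 5 mM MgCl2, 5 mM MnCl2, 5% DMSO, 10 μM ATP, 1 h at room temperature. Phosphorylation detected by AlphaScreen (streptavidin donor, PY20 acceptor beads); IC50 from 8-point 1:3 dilution series.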
# T1 sequence (P10721 with tags, fused parts or gaps DEL694-753/D816V): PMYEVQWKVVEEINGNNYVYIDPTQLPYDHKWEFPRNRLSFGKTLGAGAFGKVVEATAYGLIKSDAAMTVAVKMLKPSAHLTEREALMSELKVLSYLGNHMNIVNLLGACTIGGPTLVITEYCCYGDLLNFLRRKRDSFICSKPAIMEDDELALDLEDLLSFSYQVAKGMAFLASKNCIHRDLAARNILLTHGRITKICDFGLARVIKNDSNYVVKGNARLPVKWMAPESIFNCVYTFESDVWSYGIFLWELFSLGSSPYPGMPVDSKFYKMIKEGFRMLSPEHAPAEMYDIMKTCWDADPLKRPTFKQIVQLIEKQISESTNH
# T2 sequence (P10721 26-976): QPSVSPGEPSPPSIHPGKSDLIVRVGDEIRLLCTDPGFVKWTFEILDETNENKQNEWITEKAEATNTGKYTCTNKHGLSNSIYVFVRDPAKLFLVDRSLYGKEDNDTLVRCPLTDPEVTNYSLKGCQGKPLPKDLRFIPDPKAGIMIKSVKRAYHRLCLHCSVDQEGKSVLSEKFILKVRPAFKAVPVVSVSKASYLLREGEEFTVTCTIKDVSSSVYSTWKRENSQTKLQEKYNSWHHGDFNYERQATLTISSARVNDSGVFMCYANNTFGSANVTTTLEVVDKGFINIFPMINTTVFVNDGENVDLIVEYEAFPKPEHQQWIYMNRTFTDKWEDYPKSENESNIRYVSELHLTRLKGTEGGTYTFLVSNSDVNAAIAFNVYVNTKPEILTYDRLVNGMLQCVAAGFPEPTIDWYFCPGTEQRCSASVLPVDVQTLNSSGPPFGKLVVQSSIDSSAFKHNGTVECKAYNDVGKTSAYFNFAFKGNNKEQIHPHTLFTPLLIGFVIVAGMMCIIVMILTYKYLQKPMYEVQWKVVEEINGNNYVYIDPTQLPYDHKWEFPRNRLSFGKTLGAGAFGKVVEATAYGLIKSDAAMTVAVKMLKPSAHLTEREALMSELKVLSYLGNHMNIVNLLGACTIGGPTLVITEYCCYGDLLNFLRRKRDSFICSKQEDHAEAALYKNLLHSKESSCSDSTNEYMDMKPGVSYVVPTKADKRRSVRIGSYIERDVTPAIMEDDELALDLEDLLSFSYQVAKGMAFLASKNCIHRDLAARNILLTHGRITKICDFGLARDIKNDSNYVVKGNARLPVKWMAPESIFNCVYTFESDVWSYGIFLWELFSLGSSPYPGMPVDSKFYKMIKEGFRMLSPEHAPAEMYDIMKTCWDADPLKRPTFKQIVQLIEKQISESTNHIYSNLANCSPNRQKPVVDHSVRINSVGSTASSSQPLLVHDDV
SMILES,IC50 [1] [µM],IC50 [2] [µM]
"COc1cccc([C@H](C)NC(=O)N2CC=C(c3ncnc4cc(-c5cn(C)nc5C)sc34)CC2)c1 [P-0582, 4-[6-(1,3-dimethylpyrazol-4-yl)thieno[3,2-d]pyrimidin-4-yl]-N-[(1S)-1-(3-methoxyphenyl)ethyl]-3,6-dihydro-2H-pyridine-1-carboxamide]",0.0001 to 1,1 to 10
"Cc1ccc(S(=O)(=O)Nc2ccc(-c3ncnc4cc(C5=CCN(C(=O)C6CC6)CC5)sc34)cc2)cc1 [P-0583, N-[4-[6-[1-(cyclopropanecarbonyl)-3,6-dihydro-2H-pyridin-4-yl]thieno[3,2-d]pyrimidin-4-yl]phenyl]-4-methyl-benzenesulfonamide]",0.0001 to 1,0.0001 to 1
"Cc1nn(C)cc1-c1cc2ncnc(N3CCN(C(=O)N[C@@H](C)c4cccc(F)c4)[C@H](C)C3)c2s1 [P-0584, (2R)-4-[6-(1,3-dimethylpyrazol-4-yl)thieno[3,2-d]pyrimidin-4-yl]-N-[(1S)-1-(3-fluorophenyl)ethyl]-2-methyl-piperazine-1-carboxamide]",0.0001 to 1,1 to 10
"C[C@H](NC(=O)N1CCN(c2ncnc3cc(-c4ccc(F)cc4)sc23)C[C@H]1C)c1cccc(F)c1 [P-0585, (2R)-N-[(1S)-1-(3-fluorophenyl)ethyl]-4-[6-(4-fluorophenyl)thieno[3,2-d]pyrimidin-4-yl]-2-methyl-piperazine-1-carboxamide]",1 to 10,1 to 10
"C[C@H](NC(=O)N1CCN(c2ncnc3cc(-c4ccc(F)cc4)sc23)C[C@H]1C)c1cccc(OC(F)F)c1 [P-0586, (2R)-N-[(1S)-1-[3-(difluoromethoxy)phenyl]ethyl]-4-[6-(4-fluorophenyl)thieno[3,2-d]pyrimidin-4-yl]-2-methyl-piperazine-1-carboxamide]",0.0001 to 1,1 to 10
"Cc1nn(C)cc1-c1cc2ncnc(N3CCN(C(=O)N[C@@H](C)c4cccc(OC(F)F)c4)[C@H](C)C3)c2s1 [P-0587, (2R)-N-[(1S)-1-[3-(difluoromethoxy)phenyl]ethyl]-4-[6-(1,3-dimethylpyrazol-4-yl)thieno[3,2-d]pyrimidin-4-yl]-2-methyl-piperazine-1-carboxamide]",0.0001 to 1,10 to 200
"O=C(NCc1ccc(F)cc1)N1CCN(c2ncnc3cc(C4CCN(C(=O)C5CC5)CC4)sc23)CC1 [P-0588, 4-[6-[1-(cyclopropanecarbonyl)-4-piperidyl]thieno[3,2-d]pyrimidin-4-yl]-N-[(4-fluorophenyl)methyl]piperazine-1-carboxamide]",0.0001 to 1,10 to 200
"C[C@H](NC(=O)N1CCN(c2ncnc3cc(N4CCOCC4)sc23)CC1)c1ccc(F)cc1 [P-0589, N-[(1S)-1-(4-fluorophenyl)ethyl]-4-(6-morpholinothieno[3,2-d]pyrimidin-4-yl)piperazine-1-carboxamide]",0.0001 to 1,10 to 200
"Cc1ccc(S(=O)(=O)Nc2ccc(-c3ncnc4cc(C5=CCN(C(=O)N6CCOCC6)CC5)sc34)cc2)cc1 [P-0590, 4-methyl-N-[4-[6-[1-(morpholine-4-carbonyl)-3,6-dihydro-2H-pyridin-4-yl]thieno[3,2-d]pyrimidin-4-yl]phenyl]benzenesulfonamide]",0.0001 to 1,0.0001 to 1
"Cc1nn(C)cc1-c1cc2ncnc(N3CCN(C(=O)N[C@@H](C)c4cccc(Cl)c4)[C@H](C)C3)c2s1 [P-0591, (2R)-N-[(1S)-1-(3-chlorophenyl)ethyl]-4-[6-(1,3-dimethylpyrazol-4-yl)thieno[3,2-d]pyrimidin-4-yl]-2-methyl-piperazine-1-carboxamide]",0.0001 to 1,10 to 200
"Cc1ccc(S(=O)(=O)Nc2ccc(-c3ncnc4cc(C5CCNCC5)sc34)cc2)cc1 [P-0592, 4-methyl-N-[4-[6-(4-piperidyl)thieno[3,2-d]pyrimidin-4-yl]phenyl]benzenesulfonamide]",0.0001 to 1,10 to 200
"C[C@H](NC(=O)N1CCN(c2ncnc3cc(-c4ccc(F)cc4)sc23)CC1(C)C)c1ccc(F)cc1 [P-0593, N-[(1S)-1-(4-fluorophenyl)ethyl]-4-[6-(4-fluorophenyl)thieno[3,2-d]pyrimidin-4-yl]-2,2-dimethyl-piperazine-1-carboxamide]",0.0001 to 1,10 to 200
"COc1cccc([C@H](C)NC(=O)N2CCN(c3ncnc4cc(-c5ccc(F)cc5)sc34)CC2(C)C)c1 [P-0594, 4-[6-(4-fluorophenyl)thieno[3,2-d]pyrimidin-4-yl]-N-[(1S)-1-(3-methoxyphenyl)ethyl]-2,2-dimethyl-piperazine-1-carboxamide]",0.0001 to 1,1 to 10
"CC1(C)CN(c2ncnc3cc(-c4ccc(F)cc4)sc23)CCN1 [P-0595, 4-(3,3-dimethylpiperazin-1-yl)-6-(4-fluorophenyl)thieno[3,2-d]pyrimidine]",10 to 200,10 to 200
"O=C(NCc1ccc(F)cc1)N1CCN(c2ncnc3cc(C4CCNCC4)sc23)CC1 [P-0596, N-[(4-fluorophenyl)methyl]-4-[6-(4-piperidyl)thieno[3,2-d]pyrimidin-4-yl]piperazine-1-carboxamide]",1 to 10,10 to 200
"COc1cccc([C@H](C)NC(=O)N2CCN(c3ncnc4cc(-c5cn(C)nc5C)sc34)C[C@H]2C)c1 [P-0598, (2R)-4-[6-(1,3-dimethylpyrazol-4-yl)thieno[3,2-d]pyrimidin-4-yl]-N-[(1S)-1-(3-methoxyphenyl)ethyl]-2-methyl-piperazine-1-carboxamide]",0.0001 to 1,1 to 10
"Cc1nn(C)cc1-c1cc2ncnc(N3CCN(C(=O)N[C@@H](C)c4ccc(F)cc4)[C@H](C)C3)c2s1 [P-0599, (2R)-4-[6-(1,3-dimethylpyrazol-4-yl)thieno[3,2-d]pyrimidin-4-yl]-N-[(1S)-1-(4-fluorophenyl)ethyl]-2-methyl-piperazine-1-carboxamide]",0.0001 to 1,10 to 200
"COc1cccc([C@H](C)NC(=O)N2CCN(c3ncnc4cc(-c5ccc(F)cc5)sc34)C[C@H]2C)c1 [P-0600, (2R)-4-[6-(4-fluorophenyl)thieno[3,2-d]pyrimidin-4-yl]-N-[(1S)-1-(3-methoxyphenyl)ethyl]-2-methyl-piperazine-1-carboxamide]",0.0001 to 1,10 to 200
"C[C@@H]1CN(c2ncnc3cc(-c4ccc(F)cc4)sc23)CCN1C(=O)NCc1ccc(F)cc1 [P-0602, (2R)-N-[(4-fluorophenyl)methyl]-4-[6-(4-fluorophenyl)thieno[3,2-d]pyrimidin-4-yl]-2-methyl-piperazine-1-carboxamide]",0.0001 to 1,10 to 200
"Cc1nn(C)cc1-c1cc2ncnc(C3CCN(C(=O)N[C@@H](C)c4ccc(F)cc4)CC3)c2s1 [P-0603, 4-[6-(1,3-dimethylpyrazol-4-yl)thieno[3,2-d]pyrimidin-4-yl]-N-[(1S)-1-(4-fluorophenyl)ethyl]piperidine-1-carboxamide]",1 to 10,10 to 200
"Cc1nn(C)cc1-c1cc2ncnc(C3CCN(C(=O)NCc4ccc(F)cc4)CC3)c2s1 [P-0604, 4-[6-(1,3-dimethylpyrazol-4-yl)thieno[3,2-d]pyrimidin-4-yl]-N-[(4-fluorophenyl)methyl]piperidine-1-carboxamide]",0.0001 to 1,1 to 10
"COc1cccc([C@@H](C)NC(=O)N2CCN(c3ncnc4cc(-c5ccc(F)cc5)sc34)C[C@H]2C)c1 [P-0605, (2R)-4-[6-(4-fluorophenyl)thieno[3,2-d]pyrimidin-4-yl]-N-[(1R)-1-(3-methoxyphenyl)ethyl]-2-methyl-piperazine-1-carboxamide]",10 to 200,10 to 200
"C[C@@H]1CN(c2ncnc3cc(-c4ccc(F)cc4)sc23)CCN1C(=O)N[C@H](C)c1ccc(F)cc1 [P-0606, (2R)-N-[(1R)-1-(4-fluorophenyl)ethyl]-4-[6-(4-fluorophenyl)thieno[3,2-d]pyrimidin-4-yl]-2-methyl-piperazine-1-carboxamide]",1 to 10,10 to 200
"Cc1nn(C)cc1-c1cc2ncnc(C3CCNCC3)c2s1 [P-0607, 6-(1,3-dimethylpyrazol-4-yl)-4-(4-piperidyl)thieno[3,2-d]pyrimidine]",10 to 200,1 to 10
"COc1cccc([C@@H](C)NC(=O)N2CCN(c3ncnc4cc(-c5cn(C)nc5C)sc34)C[C@H]2C)c1 [P-0608, (2R)-4-[6-(1,3-dimethylpyrazol-4-yl)thieno[3,2-d]pyrimidin-4-yl]-N-[(1R)-1-(3-methoxyphenyl)ethyl]-2-methyl-piperazine-1-carboxamide]",0.0001 to 1,10 to 200
"Cc1nn(C)cc1-c1cc2ncnc(N3CCN(C(=O)N[C@H](C)c4ccc(F)cc4)[C@H](C)C3)c2s1 [P-0609, (2R)-4-[6-(1,3-dimethylpyrazol-4-yl)thieno[3,2-d]pyrimidin-4-yl]-N-[(1R)-1-(4-fluorophenyl)ethyl]-2-methyl-piperazine-1-carboxamide]",0.0001 to 1,1 to 10
"Cc1nn(C)cc1-c1cc2ncnc(N3CCN(C(=O)NCc4ccc(F)cc4)[C@H](C)C3)c2s1 [P-0610, (2R)-4-[6-(1,3-dimethylpyrazol-4-yl)thieno[3,2-d]pyrimidin-4-yl]-N-[(4-fluorophenyl)methyl]-2-methyl-piperazine-1-carboxamide]",0.0001 to 1,1 to 10
